Among the data in patent US9340549B2, “Oxazolidinone compounds and derivatives thereof” (priority 2012, dated 2016) are IC50 values, retold here.

Test [1] has as its target 6×HIS-tankyrase 1 (1091-1325) (Homo sapiens (Human), UniProt O95271). As to the kind of experiment: biochemical. It is filed as biochemical. The settings on record: 400 nM NAD, 60 minutes at room temperature, read-out: TNKS1 IP IC50.
Test [2] relates to total β-catenin in SW480 colorectal cells. Description: cells. The note with it: Homo sapiens; SW480 cells, 40 to 48 hours, top concentration 10 μM; read-out: SW480-Total β-Catenin IC50 IP. The class given is cell-based. The protocol:
Total β-Catenin MSD 96-Well Plate Assay for SW480 Cells
SW480 colorectal cells were seeded at a density of 10,000/well in CellBIND 96-well plates (Corning catalog no. 3300) in 60 μL of normal growth medium (MEM alpha supplemented with 10% heat inactivated FBS, GlutaMAX, pyruvate, and 10 mM HEPES).
A 10-point, 3-fold dilution series for each TNKS inhibitor was constructed in a 96-well “stock” plate. […] The plates were incubated at 37° C. for 40 to 48 hours. The media was removed from the CellBIND plate via plate inversion and gentle shaking and the inverted plate was touched to a paper towel and immediately placed on ice. […] Plates containing cell lysates were sealed and shaken for one hour at 4° C. and then quickly frozen in a −80° C. for approximately 15 to 30 minutes followed by gradually thawing at 4° C. Finally, lysate containing plates were centrifuged @1000×g (2073 rpm) for 10 minutes at 4° C.
The sealed MSD plate was incubated overnight in a cold room with gentle shaking. The MSD plate was then blocked with 150 μL of Blocker “A” per well and incubated overnight at 4° C. with vigorous shaking. The blocked MSD plate was washed 4 times with 150 μL/well TBS-T wash buffer (150 mM NaCl, 50 mM Tris, pH 7.5, 0.02% Tween-20). Cell lysates (75 μL) were transferred to prepared MSD plates and incubated at 4° C. ON with gentle shaking. […] The detection antibody was incubated for 1 hour at room temperature with vigorous shaking after which plates were washed 3 times with 150 μL/well TBS-T wash buffer. Plates were processed for analysis by the addition of 150 μL/well MSD Read 4× Buffer T with surfactant (catalog no. R92TC-2; diluted 1:3 in deionized water) and were read on the SECTOR Imager 6000.

Where two headings read alike, the source gives them in different places.

Chain of 6×HIS-tankyrase 1 (1091-1325) (O95271 1091-1325): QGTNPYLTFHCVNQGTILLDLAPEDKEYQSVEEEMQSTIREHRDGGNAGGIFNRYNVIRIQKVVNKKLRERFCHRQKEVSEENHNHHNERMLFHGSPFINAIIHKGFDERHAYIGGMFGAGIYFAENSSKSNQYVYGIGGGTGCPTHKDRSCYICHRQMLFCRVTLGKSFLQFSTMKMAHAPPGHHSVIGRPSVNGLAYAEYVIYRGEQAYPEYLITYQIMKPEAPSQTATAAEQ

Turning to `CC1(C)OC(=O)N([C@@H]2CC=C(c3cnc4cc[nH]c4c3)CC2)[C@H]1c1ccccc1` (mixture of isomers) [Example 169, mixture of (S)-3-((S)-4-(1H-pyrrolo[3,2-b]pyridin-6-yl)cyclohex-3-en-1-yl)-5,5-dimethyl-4-phenyloxazolidin-2-one and (S)-3-((R)-4-(1H-pyrrolo[3,2-b]pyridin-6-yl)cyclohex-3-en-1-yl)-5,5-dimethyl-4-phenyloxazolidin-2-one], the IC50 in test [1] ([…] enzyme) came to 88.6 nM; in test [2], 3180 nM.

Turning to `CC1(C)OC(=O)N([C@@H]2CC=C(c3cnc4ccn(-c5ncccn5)c4c3)CC2)[C@H]1c1ccccc1` (mixture of isomers) [Example 173, Mixture of (S)-5,5-dimethyl-4-phenyl-3-((S)-4-(1-(pyrimidin-2-yl)-1H-pyrrolo[3,2-b]pyridin-6-yl)cyclohex-3-en-1-yl)oxazolidin-2-one and (S)-5,5-dimethyl-4-phenyl-3-((R)-4-(1-(pyrimidin-2-yl)-1H-pyrrolo[3,2-b]pyridin-6-yl)cyclohex-3-en-1-yl)oxazolidin-2-one], the values for the IC50 in test [1] ([…] enzyme) and in test [2] were 9.26 nM and 1120 nM, respectively.

As to `CC1(C)OC(=O)N(c2ccc(C(=O)Nc3cccc4cccnc34)cc2)C1c1cccnc1` (racemic) [Example 9, (+/−)-(R/S)-4-(5,5-dimethyl-2-oxo-4-(pyridin-3-yl)oxazolidin-3-yl)-N-(quinolin-8-yl)benzamide], the IC50 was determined as 1160 nM in test [1] (0.25 nM enzyme) and 2480 nM in test [2].

In the case of `CC1(C)OC(=O)N(c2ccc(C(=O)Nc3cccc4cccnc34)cc2)C1c1cccc(F)c1` (racemic) [Example 108, (+/−)-(R/S)-4-(4-(3-fluorophenyl)-5,5-dimethyl-2-oxooxazolidin-3-yl)-N-(quinolin-8-yl)benzamide], the IC50 in test [1] (0.25 nM enzyme) is 551 nM; in test [2], > 10000 nM.

As for `CC1(C)OC(=O)N(c2ccc(C(=O)Nc3cccc4cccnc34)cc2)C1c1ccccn1` (racemic) [Example 121, (+/−)-(R/S)-4-(5,5-dimethyl-2-oxo-4-(pyridin-2-yl)oxazolidin-3-yl)-N-(quinolin-8-yl)benzamide], the IC50 in test [1] (0.25 nM enzyme) stood at 310 nM; in test [2] it was 5640 nM.

As to `CC1(C)OC(=O)N(c2ccc(C(=O)Nc3cccc4cccnc34)cc2)C1c1ccncc1` (racemic) [Example 124, (+/−)-(R/S)-4-(5,5-dimethyl-2-oxo-4-(pyridin-4-yl)oxazolidin-3-yl)-N-(quinolin-8-yl)benzamide], the IC50 came out at 767 nM in test [1] (0.25 nM enzyme) and 1500 nM in test [2].

On to `C[C@]1(c2ccccc2)CN([C@H]2CC[C@H](n3c(=O)[nH]c4cc(C#N)ccc43)CC2)C(=O)O1` (single isomer, unassigned) [Example 94], for which the IC50 in test [1] ([…] enzyme) worked out at 270 nM; in test [2], 3010 nM.

For the compound `C[C@@]1(c2ccccc2)CN([C@H]2CC[C@@H](n3c(=O)[nH]c4cc(C#N)ccc43)CC2)C(=O)O1` (stereo in doubt) [Example 93, 1-((1R,4r)-4-((R)-5-methyl-2-oxo-5-phenyloxazolidin-3-yl)cyclohexyl)-2-oxo-2,3-dihydro-1H-benzo[d]imidazole-5-carbonitrile], the IC50 in test [1] ([…] enzyme) was 3 nM; in test [2], 125 nM.

As to `CC1(C)OC(=O)N([C@H]2CC[C@H](n3c(=O)[nH]c4cccnc43)CC2)[C@@H]1c1ccccc1` [Example 38, (R)-5,5-dimethyl-3-((1r,4R)-4-(2-oxo-1H-imidazo[4,5-b]pyridin-3(2H)-yl)cyclohexyl)-4-phenyloxazolidin-2-one], the IC50 in test [2] stood at 4740 nM.

Turning to `CC1(C)OC(=O)N([C@H]2CC[C@H](n3c(=O)n(CC(F)F)c4cnccc43)CC2)[C@H]1c1ccccc1` [Example 39, (S)-3-((1r,4S)-4-(3-(2,2-difluoroethyl)-2-oxo-2,3-dihydro-1H-imidazo[4,5-c]pyridin-1-yl)cyclohexyl)-5,5-dimethyl-4-phenyloxazolidin-2-one], in test [2], the IC50 worked out at 6750 nM.

As for `CC1(C)OC(=O)N([C@H]2CC[C@H](n3c(=O)[nH]c4cc(C#N)c(F)cc43)CC2)[C@H]1c1ccccc1` [Example 103, 1-((1S,4r)-4-((S)-5,5-dimethyl-2-oxo-4-phenyloxazolidin-3-yl)cyclohexyl)-6-fluoro-2-oxo-2,3-dihydro-1H-benzo[d]imidazole-5-carbonitrile], in test [2], the IC50 stood at 67.2 nM.

Consider `COc1ccccc1C(=O)N[C@H]1CC[C@H](N2C(=O)OC(C)(C)[C@@H]2c2ccccc2)CC1` [Example 163, N-((1S,4r)-4-((S)-5,5-dimethyl-2-oxo-4-phenyloxazolidin-3-yl)cyclohexyl)-2-methoxybenzamide], for which, in test [1] ([…] enzyme), the IC50 was determined as 220 nM.

In the case of `CC1(C)OC(=O)N([C@H]2CC[C@H](NC(=O)c3coc(-c4ccccc4)n3)CC2)[C@H]1c1ccccc1` [Example 164, N-((1S,4r)-4-((S)-5,5-dimethyl-2-oxo-4-phenyloxazolidin-3-yl)cyclohexyl)-2-phenyloxazole-4-carboxamide], the IC50 in test [1] ([…] enzyme) came out at 51.9 nM.

For `CC1(C)OC(=O)N([C@H]2CC[C@H](NC(=O)c3ccncn3)CC2)[C@H]1c1ccccc1` [Example 165, N-((1S,4r)-4-((S)-5,5-dimethyl-2-oxo-4-phenyloxazolidin-3-yl)cyclohexyl)pyrimidine-4-carboxamide], in test [1] ([…] enzyme), the IC50 came out at 260 nM.

Regarding `Cc1nc(C(=O)N[C@H]2CC[C@H](N3C(=O)OC(C)(C)[C@@H]3c3ccccc3)CC2)cs1` [Example 166, N-((1S,4r)-4-((S)-5,5-dimethyl-2-oxo-4-phenyloxazolidin-3-yl)cyclohexyl)-2-methylthiazole-4-carboxamide], the IC50 in test [1] ([…] enzyme) is > 46300 nM.

As for `CC1(C)OC(=O)N([C@H]2CC[C@H](NC(=O)c3csc(-c4ccncc4)n3)CC2)[C@H]1c1ccccc1` [Example 167, N-((1S,4r)-4-((S)-5,5-dimethyl-2-oxo-4-phenyloxazolidin-3-yl)cyclohexyl)-2-(pyridin-4-yl)thiazole-4-carboxamide], in test [1] ([…] enzyme), the IC50 was > 46300 nM.

`CC1(C)OC(=O)N([C@H]2CC[C@H](NC(=O)c3cscn3)CC2)[C@H]1c1ccccc1` [Example 168, N-((1S,4r)-4-((S)-5,5-dimethyl-2-oxo-4-phenyloxazolidin-3-yl)cyclohexyl)thiazole-4-carboxamide]: the IC50 in test [1] ([…] enzyme) is > 46300 nM.

`CC1(C)OC(=O)N([C@H]2CC[C@H](c3cnc4cc[nH]c4c3)CC2)[C@H]1c1ccccc1` [Example 171, (S)-3-((1r,4S)-4-(1H-pyrrolo[3,2-b]pyridin-6-yl)cyclohexyl)-5,5-dimethyl-4-phenyloxazolidin-2-one]: the IC50 in test [1] ([…] enzyme) worked out at 19 nM.

Regarding `CC1(C)OC(=O)N([C@H]2CC[C@@H](c3cnc4cc[nH]c4c3)CC2)[C@H]1c1ccccc1` [Example 172, (S)-3-((1s,4R)-4-(1H-pyrrolo[3,2-b]pyridin-6-yl)cyclohexyl)-5,5-dimethyl-4-phenyloxazolidin-2-one], the IC50 in test [1] ([…] enzyme) stood at 1250 nM.

Consider `C[C@H]1OC(=O)N([C@H]2CC[C@H](n3c(=O)[nH]c4cc(C#N)ccc43)CC2)[C@H]1c1ccccc1` [Example 178, 1-((1R,4s)-4-((4S,5R)-5-methyl-2-oxo-4-phenyloxazolidin-3-yl)cyclohexyl)-2-oxo-2,3-dihydro-1H-benzo[d]imidazole-5-carbonitrile], for which the IC50 in test [1] ([…] enzyme) came out at 0.375 nM.

For `C[C@@H]1OC(=O)N([C@H]2CC[C@H](n3c(=O)[nH]c4cc(C#N)ccc43)CC2)C1c1ccccc1` (stereo partly drawn) [Example 179, 1-((1R,4r)-4-((4R,5S)-5-methyl-2-oxo-4-phenyloxazolidin-3-yl)cyclohexyl)-2-oxo-2,3-dihydro-1H-benzo[d]imidazole-5-carbonitrile], the IC50 in test [1] ([…] enzyme) came out at 129 nM.

As to `CC1(C)OC(=O)N([C@H]2CC[C@H](n3ncc4cc(C#N)ccc43)CC2)[C@@H]1c1ccccc1` [Example 180, 1-((1R,4r)-4-((R)-5,5-dimethyl-2-oxo-4-phenyloxazolidin-3-yl)cyclohexyl)-1H-indazole-5-carbonitrile], in test [1] ([…] enzyme), the IC50 amounted to 915 nM.

With `CC1(C)OC(=O)N([C@H]2CC[C@H](n3ncc4cc(C#N)ccc43)CC2)[C@H]1c1ccccc1` [Example 181, 1-((1S,4r)-4-((S)-5,5-dimethyl-2-oxo-4-phenyloxazolidin-3-yl)cyclohexyl)-1H-indazole-5-carbonitrile], in test [1] ([…] enzyme), the IC50 is 714 nM.

Take `CC1(C)OC(=O)N([C@H]2CC[C@H](NC(=O)c3csc(Br)n3)CC2)[C@H]1c1ccccc1` [Example 182, 2-bromo-N-((1S,4r)-4-((S)-5,5-dimethyl-2-oxo-4-phenyloxazolidin-3-yl)cyclohexyl)thiazole-4-carboxamide]: the IC50 in test [1] ([…] enzyme) is 32.1 nM.

With `CC1(C)OC(=O)N([C@H]2CC[C@H](NC(=O)c3csc(-c4ncccn4)n3)CC2)[C@H]1c1ccccc1` [Example 183, N-((1S,4r)-4-((S)-5,5-dimethyl-2-oxo-4-phenyloxazolidin-3-yl)cyclohexyl)-2-(pyrimidin-2-yl)thiazole-4-carboxamide], the IC50 in test [1] ([…] enzyme) was 3.94 nM.
